Assay results from patent US8192962B2, “Processes for detecting toxic substances” (Daikin Industries, Ltd., priority 2001, dated 2012).

System: Genes belonging to other category
Assay: DNA chip mRNA expression in yeast, genes belonging to other category (Table 9)
Type: cell-based, Saccharomyces cerevisiae S288C
Outline: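 Value is the scanned fluorescence intensity ratio of exposed versus chemical-free cells. Log-phase S288C yeast in YPD at 25° C. received one toxic substance for two hours, dosed to slow growth without killing; Cy3/Cy5-labeled cDNA from oligo-dT-purified mRNA was hybridized to a whole-genome chip at 65° C.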

[Cl][Cd][Cl] [(2), CdCl2]
The level of expressed mRNA in the presence of chemical substance/The level of expressed mRNA in the absence of chemical substance (yeast gene YAR010C): 1.2 | The level of expressed mRNA in the presence of chemical substance/The level of expressed mRNA in the absence of chemical substance (yeast gene YBL005W-A): 0.9 | The level of expressed mRNA in the presence of chemical substance/The level of expressed mRNA in the absence of chemical substance (yeast gene YBL041W): 1.4 | The level of expressed mRNA in the presence of chemical substance/The level of expressed mRNA in the absence of chemical substance (yeast gene YBL043W): 1.2 | The level of expressed mRNA in the presence of chemical substance/The level of expressed mRNA in the absence of chemical substance (yeast gene YBL078C): 2.7 | The level of expressed mRNA in the presence of chemical substance/The level of expressed mRNA in the absence of chemical substance (yeast gene YBR214W): 2.1 | The level of expressed mRNA in the presence of chemical substance/The level of expressed mRNA in the absence of chemical substance (yeast gene YCL020W): 2.5 | The level of expressed mRNA in the presence of chemical substance/The level of expressed mRNA in the absence of chemical substance (yeast gene YCL027W): 2.0 | The level of expressed mRNA in the presence of chemical substance/The level of expressed mRNA in the absence of chemical substance (yeast gene YCR004C): 1.0 | The level of expressed mRNA in the presence of chemical substance/The level of expressed mRNA in the absence of chemical substance (yeast gene YCR071C): 0.7 | The level of expressed mRNA in the presence of chemical substance/The level of expressed mRNA in the absence of chemical substance (yeast gene YCR088W): 1.1 | The level of expressed mRNA in the presence of chemical substance/The level of expressed mRNA in the absence of chemical substance (yeast gene YDL008W): 1.0 | The level of expressed mRNA in the presence of chemical substance/The level of expressed mRNA in the absence of chemical substance (yeast gene YDL238C): 1.0 | The level of expressed mRNA in the presence of chemical substance/The level of expressed mRNA in the absence of chemical substance (yeast gene YDR055W): 2.1 | The level of expressed mRNA in the presence of chemical substance/The level of expressed mRNA in the absence of chemical substance (yeast gene YDR084C): 0.9 | The level of expressed mRNA in the presence of chemical substance/The level of expressed mRNA in the absence of chemical substance (yeast gene YDR085C): 1.8 | The level of expressed mRNA in the presence of chemical substance/The level of expressed mRNA in the absence of chemical substance (yeast gene YDR104C): 1.1 | The level of expressed mRNA in the presence of chemical substance/The level of expressed mRNA in the absence of chemical substance (yeast gene YDR115W): 0.9 | The level of expressed mRNA in the presence of chemical substance/The level of expressed mRNA in the absence of chemical substance (yeast gene YDR259C): 1.0 | The level of expressed mRNA in the presence of chemical substance/The level of expressed mRNA in the absence of chemical substance (yeast gene YDR315C): 1.4 | The level of expressed mRNA in the presence of chemical substance/The level of expressed mRNA in the absence of chemical substance (yeast gene YDR358W): 1.1 | The level of expressed mRNA in the presence of chemical substance/The level of expressed mRNA in the absence of chemical substance (yeast gene YDR388W): 0.7 | The level of expressed mRNA in the presence of chemical substance/The level of expressed mRNA in the absence of chemical substance (yeast gene YDR432W): 0.8 | The level of expressed mRNA in the presence of chemical substance/The level of expressed mRNA in the absence of chemical substance (yeast gene YDR481C): 2.3 | The level of expressed mRNA in the presence of chemical substance/The level of expressed mRNA in the absence of chemical substance (yeast gene YDR510W): 1.3 | The level of expressed mRNA in the presence of chemical substance/The level of expressed mRNA in the absence of chemical substance (yeast gene YEL042W): 0.9 | The level of expressed mRNA in the presence of chemical substance/The level of expressed mRNA in the absence of chemical substance (yeast gene YEL066W): 2.9 | The level of expressed mRNA in the presence of chemical substance/The level of expressed mRNA in the absence of chemical substance (yeast gene YER039C): 1.2 | The level of expressed mRNA in the presence of chemical substance/The level of expressed mRNA in the absence of chemical substance (yeast gene YER107C): 0.5 | The level of expressed mRNA in the presence of chemical substance/The level of expressed mRNA in the absence of chemical substance (yeast gene YER130C): 1.6 | The level of expressed mRNA in the presence of chemical substance/The level of expressed mRNA in the absence of chemical substance (yeast gene YFL022C): 0.9 | The level of expressed mRNA in the presence of chemical substance/The level of expressed mRNA in the absence of chemical substance (yeast gene YFL028C): 1.1 | The level of expressed mRNA in the presence of chemical substance/The level of expressed mRNA in the absence of chemical substance (yeast gene YFL043C): 1.2 | The level of expressed mRNA in the presence of chemical substance/The level of expressed mRNA in the absence of chemical substance (yeast gene YGL158W): 2.8 | The level of expressed mRNA in the presence of chemical substance/The level of expressed mRNA in the absence of chemical substance (yeast gene YGL229C): 0.7 | The level of expressed mRNA in the presence of chemical substance/The level of expressed mRNA in the absence of chemical substance (yeast gene YGR136W): 1.2 | The level of expressed mRNA in the presence of chemical substance/The level of expressed mRNA in the absence of chemical substance (yeast gene YGR189C): 0.9 | The level of expressed mRNA in the presence of chemical substance/The level of expressed mRNA in the absence of chemical substance (yeast gene YGR213C): 2.9 | The level of expressed mRNA in the presence of chemical substance/The level of expressed mRNA in the absence of chemical substance (yeast gene YGR257C): 0.8 | The level of expressed mRNA in the presence of chemical substance/The level of expressed mRNA in the absence of chemical substance (yeast gene YHR004C): 1.1 | The level of expressed mRNA in the presence of chemical substance/The level of expressed mRNA in the absence of chemical substance (yeast gene YHR071W): 1.1 | The level of expressed mRNA in the presence of chemical substance/The level of expressed mRNA in the absence of chemical substance (yeast gene YHR139C): 4.6 | The level of expressed mRNA in the presence of chemical substance/The level of expressed mRNA in the absence of chemical substance (yeast gene YHR142W): 0.8 | The level of expressed mRNA in the presence of chemical substance/The level of expressed mRNA in the absence of chemical substance (yeast gene YIL123W): 0.5 | The level of expressed mRNA in the presence of chemical substance/The level of expressed mRNA in the absence of chemical substance (yeast gene YIL140W): 1.0 | The level of expressed mRNA in the presence of chemical substance/The level of expressed mRNA in the absence of chemical substance (yeast gene YJL073W): 0.8 | The level of expressed mRNA in the presence of chemical substance/The level of expressed mRNA in the absence of chemical substance (yeast gene YJL089W): 1.5 | The level of expressed mRNA in the presence of chemical substance/The level of expressed mRNA in the absence of chemical substance (yeast gene YJL116C): 1.8 | The level of expressed mRNA in the presence of chemical substance/The level of expressed mRNA in the absence of chemical substance (yeast gene YJR004C): 0.8 | The level of expressed mRNA in the presence of chemical substance/The level of expressed mRNA in the absence of chemical substance (yeast gene YJR086W): 1.1
